# Laboratory results from ChEMBL document CHEMBL1201862, “PubChem BioAssay data set” (2004).
#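 1) Cells in 96-well plates. 2) Compound, 48 h, 5 concentrations. 3) Linear interpolation between surrounding doses. 4) Unreached endpoint = highest concentration. GI50 marks 50% less growth.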 The source made the active and inactive calls. Rule as the data show it: active = GI50 up to about 1.1 µM and inactive = higher. Numbered stars: 1 amine (or outer) side, 2 acyl side, 3 side chain; on linkers, the order of the positions; unused ones are H or OH. Square brackets hold non-standard residues; d marks the D form. Peptide text beside a SMILES is read from it. X55 = CC[C@H](C)[C@H](OC(=O)[C@@H](C)[C@@H](CC)N[*:1])C(=O)[*:2]; X31 = C[C@H](N[*:1])C(=O)C(C)(C)C(=O)[*:2]; NMeY = CN[C@@H](Cc1ccc(O)cc1)C(=O)O; NMeL = CN[C@@H](CC(C)C)C(=O)O; NMeV = CN[C@H](C(=O)O)C(C)C
# Assays:
# Experiment in all cases: growth of human tumour cells (NCI), 48 h
# [1] = system: DMS-114
# [2] = system: NCI/ADR-RES
# [3] = system: DU-145
# [4] = system: BT-549
# [5] = system: SF-268
# [6] = system: ACHN
# [7] = system: HOP-62
# [8] = system: DLD-1
# [9] = system: M19-MEL
# [10] = system: SNB-19
# [11] = system: EKVX
# [12] = system: HOP-18
# [13] = system: MCF7
# [14] = system: SF-539
# [15] = system: CAKI-1
# [16] = system: RXF 393
# [17] = system: UACC-257
# [18] = system: T47D
# [19] = system: IGROV-1
# [20] = system: SR
# [21] = system: HL-60
# [22] = system: M14
# [23] = system: NCI-H23
# [24] = system: CCRF-CEM
# [25] = system: SW-620
# [26] = system: NCI-H460
# [27] = system: A549
# [28] = system: UO-31
# [29] = system: MDA-MB-231
# [30] = system: MOLT-4
# [31] = system: XF498
# [32] = system: NCI-H522
# [33] = system: HCC 2998
# [34] = system: PC-3
# [35] = system: MDA-N
# [36] = system: UACC-62
# [37] = system: SK-MEL-2
# [38] = system: OVCAR-5
# [39] = system: SN12C
# [40] = system: SK-MEL-5
# [41] = system: Hs-578T
# [42] = system: HOP-92
# [43] = system: LOX IMVI
# [44] = system: U-251
# [45] = system: DMS-273
# [46] = system: LXFL 529
# [47] = system: SK-OV-3
# [48] = system: K562
# [49] = system: OVCAR-8
# [50] = system: A498
# [51] = system: RPMI-8226
# [52] = system: SF-295
# [53] = system: HCT-116
# [54] = system: TK-10
# [55] = system: KM-20L2
# [56] = system: OVCAR-3
# [57] = system: HT-29
# [58] = system: SNB-78
# [59] = system: SNB-75
# [60] = system: Malme-3M
# [61] = system: HCT-15
# [62] = system: KM12
# [63] = system: 786-0
# [64] = system: OVCAR-4
# [65] = system: NCI-H226
# [66] = system: MDA-MB-435
# [67] = system: RXF 631
# [68] = system: COLO 205
# [69] = system: SK-MEL-28
structure (smiles),measurement,setting,value
CC[C@H](C)[C@@H]1OC(=O)[C@@H](C)[C@@H](CC)NC(=O)[C@H](C)NC(=O)C(C)(C)C(=O)[C@H](C)NC(=O)[C@H](Cc2ccc(OC)cc2)N(C)C(=O)[C@H](C(C)C)N(C)C(=O)CNC(=O)[C@H](CC(C)C)N(C)C(=O)CNC1=O [DOLASTATIN 11] (cyclo(A[X55]G[NMeL]G[NMeV][NMeY](Me)[X31])),GI50,[1],< 20.3 nM (active)
same,GI50,[2],802 nM (active)
same,GI50,[3],118 nM (active)
same,GI50,[4],91 nM (active)
same,GI50,[5],82 nM (active)
same,GI50,[6],32.7 nM (active)
same,GI50,[7],49.7 nM (active)
same,GI50,[8],< 36.1 nM (active)
same,GI50,[9],344 nM (active)
same,GI50,[10],185 nM (active)
same,GI50,[11],102 nM (active)
same,GI50,[12],< 11.8 nM (active)
same,GI50,[13],59.2 nM (active)
same,GI50,[14],12.2 nM (active)
same,GI50,[15],34 nM (active)
same,GI50,[16],22.3 nM (active)
same,GI50,[17],81.7 nM (active)
same,GI50,[18],448 nM (active)
same,GI50,[19],35.5 nM (active)
same,GI50,[20],35.5 nM (active)
same,GI50,[21],11.7 nM (active)
same,GI50,[22],< 14.8 nM (active)
same,GI50,[23],71 nM (active)
same,GI50,[24],27.4 nM (active)
same,GI50,[25],286 nM (active)
same,GI50,[26],1.15 nM (active)
same,GI50,[27],17.5 nM (active)
same,GI50,[28],169 nM (active)
same,GI50,[29],63.2 nM (active)
same,GI50,[30],543 nM (active)
same,GI50,[31],24.8 nM (active)
same,GI50,[32],6.07 nM (active)
same,GI50,[33],18.8 nM (active)
same,GI50,[34],84.9 nM (active)
same,GI50,[35],85.5 nM (active)
same,GI50,[36],89.3 nM (active)
same,GI50,[37],78.7 nM (active)
same,GI50,[38],900 nM (active)
same,GI50,[39],194 nM (active)
same,GI50,[40],24.7 nM (active)
same,GI50,[41],258 nM (active)
same,GI50,[42],75.2 nM (active)
same,GI50,[43],10 nM (active)
same,GI50,[44],15.8 nM (active)
same,GI50,[45],10 nM (active)
same,GI50,[46],< 16.6 nM (active)
same,GI50,[47],229 nM (active)
same,GI50,[48],88.5 nM (active)
same,GI50,[49],101 nM (active)
same,GI50,[50],118 nM (active)
same,GI50,[51],115 nM (active)
same,GI50,[52],83.8 nM (active)
same,GI50,[53],154 nM (active)
same,GI50,[54],71.3 nM (active)
same,GI50,[55],< 19.7 nM (active)
same,GI50,[56],41.3 nM (active)
same,GI50,[57],26.4 nM (active)
same,GI50,[58],51.4 nM (active)
same,GI50,[59],84.7 nM (active)
same,GI50,[60],130 nM (active)
same,GI50,[61],670 nM
same,GI50,[62],400 nM (active)
same,GI50,[63],30.4 nM (active)
same,GI50,[64],50.7 nM (active)
same,GI50,[65],137 nM (active)
same,GI50,[66],60.3 nM (active)
C/C(CC(=O)Nc1cccc(Cl)c1C)=N\NC(N)=S,GI50,[5],> 100000 nM (inactive)
same,GI50,[7],> 100000 nM (inactive)
same,GI50,[8],> 100000 nM (inactive)
same,GI50,[9],> 100000 nM (inactive)
same,GI50,[11],> 100000 nM (inactive)
same,GI50,[14],> 100000 nM (inactive)
same,GI50,[16],> 100000 nM (inactive)
same,GI50,[17],> 100000 nM (inactive)
same,GI50,[19],> 100000 nM (inactive)
same,GI50,[21],> 100000 nM (inactive)
same,GI50,[22],> 100000 nM (inactive)
same,GI50,[23],> 100000 nM (inactive)
same,GI50,[24],> 100000 nM (inactive)
same,GI50,[25],> 100000 nM (inactive)
same,GI50,[26],> 100000 nM (inactive)
same,GI50,[67],> 100000 nM (inactive)
same,GI50,[27],> 100000 nM (inactive)
same,GI50,[28],> 100000 nM (inactive)
same,GI50,[30],> 100000 nM (inactive)
same,GI50,[68],> 100000 nM (inactive)
same,GI50,[31],> 100000 nM (inactive)
same,GI50,[32],39600 nM (inactive)
same,GI50,[33],> 100000 nM (inactive)
same,GI50,[36],> 100000 nM (inactive)
same,GI50,[37],> 100000 nM (inactive)
same,GI50,[38],> 100000 nM (inactive)
same,GI50,[40],> 100000 nM (inactive)
same,GI50,[42],30100 nM (inactive)
same,GI50,[43],> 100000 nM (inactive)
same,GI50,[44],> 100000 nM (inactive)
same,GI50,[46],> 100000 nM (inactive)
same,GI50,[47],> 100000 nM (inactive)
same,GI50,[48],> 100000 nM (inactive)
same,GI50,[49],> 100000 nM (inactive)
same,GI50,[50],> 100000 nM (inactive)
same,GI50,[51],> 100000 nM (inactive)
same,GI50,[52],> 100000 nM (inactive)
same,GI50,[53],> 100000 nM (inactive)
same,GI50,[54],> 100000 nM (inactive)
same,GI50,[55],> 100000 nM (inactive)
same,GI50,[56],> 100000 nM (inactive)
same,GI50,[57],> 100000 nM (inactive)
same,GI50,[58],> 100000 nM (inactive)
same,GI50,[59],> 100000 nM (inactive)
same,GI50,[60],> 100000 nM (inactive)
same,GI50,[62],> 100000 nM (inactive)
same,GI50,[63],> 100000 nM (inactive)
same,GI50,[65],> 100000 nM (inactive)
same,GI50,[69],> 100000 nM (inactive)
CCN(CC)CCCC(C)Nc1c(Sc2cnc3cc(Cl)ccc3c2NC(C)CCCN(CC)CC)cnc2cc(Cl)ccc12 (stereo not given),GI50,[5],2020 nM (inactive)
same,GI50,[6],1980 nM (inactive)
same,GI50,[8],1910 nM (inactive)
same,GI50,[9],1620 nM (inactive)
same,GI50,[12],2170 nM (inactive)
same,GI50,[15],1530 nM (inactive)
same,GI50,[16],1670 nM (inactive)
same,GI50,[17],2030 nM (inactive)
same,GI50,[19],1870 nM (inactive)
same,GI50,[21],1820 nM (inactive)
same,GI50,[22],1810 nM (inactive)
same,GI50,[23],3300 nM (inactive)
same,GI50,[24],2200 nM (inactive)
same,GI50,[25],1580 nM (inactive)
same,GI50,[26],1740 nM (inactive)
same,GI50,[67],2080 nM (inactive)
same,GI50,[27],1680 nM (inactive)
same,GI50,[28],21100 nM (inactive)
same,GI50,[30],2370 nM (inactive)
same,GI50,[68],1460 nM (inactive)
same,GI50,[32],1730 nM (inactive)
same,GI50,[33],269 nM (active)
same,GI50,[36],1740 nM (inactive)
same,GI50,[37],1850 nM (inactive)
same,GI50,[38],1730 nM (inactive)
same,GI50,[39],1880 nM (inactive)
same,GI50,[42],1960 nM (inactive)
same,GI50,[43],1780 nM (inactive)
same,GI50,[44],1630 nM (inactive)
same,GI50,[45],1720 nM (inactive)
same,GI50,[46],1920 nM (inactive)
same,GI50,[47],1660 nM (inactive)
same,GI50,[48],1550 nM (inactive)
same,GI50,[49],1690 nM (inactive)
same,GI50,[50],1850 nM (inactive)
same,GI50,[51],1910 nM (inactive)
same,GI50,[53],1370 nM (inactive)
same,GI50,[54],1790 nM (inactive)
same,GI50,[55],1660 nM (inactive)
same,GI50,[56],1900 nM (inactive)
same,GI50,[57],1650 nM (inactive)
same,GI50,[58],2730 nM (inactive)
same,GI50,[59],1510 nM (inactive)
same,GI50,[60],2130 nM (inactive)
same,GI50,[61],1720 nM
same,GI50,[62],2070 nM (inactive)
same,GI50,[63],1540 nM (inactive)
same,GI50,[64],1730 nM (inactive)
same,GI50,[65],1760 nM (inactive)
same,GI50,[69],1860 nM (inactive)
